From patent US10053461B2 (Hoffmann-La Roche Inc., priority 2015, dated 2018)

Tested on: HBsAg
Assay: microbe, parasite or virus in culture
Details: Hepatitis B virus, HepG2.2.15
Protocol: HepG2.2.15 cells (Acs et al. Proc Natl Acad Sci USA, 84, (1987), 4641-4), a constitutively HBV-expressing cell line were cultured in DMEM+Glutamax-I medium (Invitrogen, Carlsbad, Calif., USA), supplemented with 10% fetal bovine serum (Invitrogen) and G418 (Invitrogen) at a final concentration of 200 mg/L and maintained in 5% CO2 at 37° C.
HepG2.2.15 cells were seeded in duplicate into white, 96-well plates at 1.5×10^4 cells/well. The cells were treated with a three-fold serial dilution series of the compounds in DMSO. The final DMSO concentration in all wells was 1% and DMSO was used as no drug control.
The HBsAg chemiluminescence immunoassay (CLIA) kit (Autobio Diagnostics Co., Zhengzhou, China, Catalog number: CL0310-2) was used to measure the levels of secreted HBV antigens semi-quantitatively. For the detection 50 μL/well culture supernatant was used and HBsAg was quantified using HBsAg chemiluminescence immunoassay (CLIA) kit (Autobio Diagnostics Co., Zhengzhou, China, Catalog number: CL0310-2), 50 μL of the supernatant was transferred to the CLIA assay plate and 50 μL of enzyme conjugate reagent was added into each well. The plates were sealed and gently agitated for 1 hour at room temperature. The supernatant-enzyme-mixture was discarded and wells were washed 6 times with 300 μL of PBS. The residual liquid was removed by plating the CLIA plate right side down on absorbent tissue paper. 25 μL of substrates A and B were added to each well. Luminance was measured using a luminometer (Mithras LB 940 Multimode Microplate Reader) after 10 minutes incubation. Dose-response curves were generated and the IC50 value was extrapolated by using the E-WorkBook Suite (ID Business Solutions Ltd., Guildford, UK). The IC50 was defined as the compound concentration (or conditioned media log dilution) at which HBsAg secretion was reduced by 50% compared to the no drug control.
The compounds of the present invention were tested for their activity to inhibit HBsAg as described herein.

Q: With COc1cc2c(cc1OCCCN1CCOCC1)[C@H]1CCC(C)(C)[C@H]1n1cc(C(=O)O)c(=O)cc1-2 (relative stereo) [Example 15, Cis-10-methoxy-3,3-dimethyl-11-(3-morpholinopropoxy)-7-oxo-1,2,3,3a,7,12b-hexahydrocyclopenta[c]pyrido[2,1-a]isoquinoline-6-carboxylic acid] as the compound, how does the IC50 read?
A: Its IC50 is 6 nM.

Q: With CCCc1cc2c(cc1OC)-c1cc(=O)c(C(=O)O)cn1[C@H]1[C@@H]2CCC1(C)C (relative stereo) [Example 40, Cis-10-methoxy-3,3-dimethyl-7-oxo-11-propyl-1,2,3,3a,7,12b-hexahydrocyclopenta[c]pyrido[2,1-a]isoquinoline-6-carboxylic acid] as the compound, how does the IC50 read?
A: Its IC50 is 19 nM.

Q: COc1cc2c(cc1OCCCSC)[C@H]1CCC(C)(C)[C@H]1n1cc(C(=O)O)c(=O)cc1-2 (relative stereo) [Example 20, Cis-10-methoxy-3,3-dimethyl-11-(3-(methylthio)propoxy)-7-oxo-1,2,3,3a,7,12b-hexahydrocyclopenta[c]pyrido[2,1-a]isoquinoline-6-carboxylic acid] was tested. Which IC50 did it give?
A: The IC50 was 2 nM.

Q: Which IC50 does the source give for COc1cc2c(cc1OCCCC#N)[C@H]1CCC(C)(C)[C@H]1n1cc(C(=O)O)c(=O)cc1-2 (relative stereo) [Example 12, Cis-11-(3-cyanopropoxy)-10-methoxy-3,3-dimethyl-7-oxo-1,2,3,3a,7,12b-hexahydrocyclopenta[c]pyrido[2,1-a]isoquinoline-6-carboxylic acid] here?
A: Its IC50 is 4 nM.

Q: For COc1cc2c(cc1OCCCC(=O)O)[C@H]1CCC(C)(C)[C@H]1n1cc(C(=O)O)c(=O)cc1-2 (relative stereo) [Example 19, Cis-11-(3-carboxypropoxy)-10-methoxy-3,3-dimethyl-7-oxo-1,2,3,3a,7,12b-hexahydrocyclopenta[c]pyrido[2,1-a]isoquinoline-6-carboxylic acid], which IC50 is on record?
A: Its IC50 is 505 nM.

Q: For COc1cc2c(cc1N1CCCC1)[C@H]1CCC(C)(C)[C@H]1n1cc(C(=O)O)c(=O)cc1-2 (relative stereo) [Example 41, Cis-10-methoxy-3,3-dimethyl-7-oxo-11-(pyrrolidin-1-yl)-1,2,3,3a,7,12b-hexahydrocyclopenta[c]pyrido[2,1-a]isoquinoline-6-carboxylic acid], which IC50 is on record?
A: Its IC50 is < 1.6 nM.

Q: With COc1cc2c(cc1OCc1ccccc1)[C@H]1CCCC[C@@H]1n1cc(C(=O)O)c(=O)cc1-2 (racemic) [Example 31, Trans-12-benzyloxy-11-methoxy-8-oxo-1,2,3,4,4a,13b-hexahydropyrido[1,2-f]phenanthridine-7-carboxylic acid] as the compound, how does the IC50 read?
A: The IC50 was 120 nM.

Q: For COc1cc2c(cc1OCCCS(C)(=O)=O)[C@H]1CCC(C)(C)[C@H]1n1cc(C(=O)O)c(=O)cc1-2 (relative stereo) [Example 21, Cis-10-methoxy-3,3-dimethyl-11-(3-(methylsulfonyl)propoxy)-7-oxo-1,2,3,3a,7,12b-hexahydrocyclopenta[c]pyrido[2,1-a]isoquinoline-6-carboxylic acid], which IC50 is on record?
A: The IC50 was 17 nM.

Q: Which IC50 does the source give for COc1cc2c(cc1OCC(C)C)[C@H]1CCC(C)(C)[C@H]1n1cc(C(=O)O)c(=O)cc1-2 (relative stereo) [Example 9, Cis-11-isobutoxy-10-methoxy-3,3-dimethyl-7-oxo-1,2,3,3a,7,12b-hexahydrocyclopenta[c]pyrido[2,1-a]isoquinoline-6-carboxylic acid] here?
A: The IC50 was 1 nM.

Q: For COCCCOc1cc2c(cc1OC)-c1cc(=O)c(C(=O)O)cn1[C@H]1CCN(C(=O)OCc3ccccc3)C[C@H]21 (relative stereo) [Example 29, Trans-2-((benzyloxy)carbonyl)-11-methoxy-12-(3-methoxypropoxy)-8-oxo-2,3,4,4a,8,13b-hexahydro-1H-benzo[c]pyrido[1,2-a][1,6]naphthyridine-7-carboxylic acid], which IC50 is on record?
A: Its IC50 is 152 nM.

Q: With COc1cc2c(cc1OCCCCCCN)[C@H]1CCC(C)(C)[C@H]1n1cc(C(=O)O)c(=O)cc1-2 (relative stereo) [Example 24, Cis-11-((6-aminohexyl)oxy)-10-methoxy-3,3-dimethyl-7-oxo-1,2,3,3a,7,12b-hexahydrocyclopenta[c]pyrido[2,1-a]isoquinoline-6-carboxylic acid] as the compound, how does the IC50 read?
A: The IC50 was 20 nM.

Q: Which IC50 does the source give for COCCCOc1cc2c(cc1OC)-c1cc(=O)c(C(=O)O)cn1[C@H]1CCN(C(=O)OCc3ccccc3)C[C@@H]21 (relative stereo) [Example 30, cis-2-((benzyloxy)carbonyl)-11-methoxy-12-(3-methoxypropoxy)-8-oxo-2,3,4,4a,8,13b-hexahydro-1H-benzo[c]pyrido[1,2-a][1,6]naphthyridine-7-carboxylic acid] here?
A: Its IC50 is 564 nM.

Q: How did the IC50 turn out when COCCCOc1cc2c(cc1OC)-c1cc(=O)c(C(=O)O)cn1[C@@H]1CCSC[C@H]21 (racemic) [Example 36, cis-11-methoxy-12-(3-methoxypropoxy)-8-oxo-1,3,4,4a,8,13b-hexahydropyrido[2,1-a]thiopyrano[4,3-c]isoquinoline-7-carboxylic acid] was run?
A: Its IC50 is 28 nM.

Q: With CCOC(=O)CCCOc1cc2c(cc1OC)-c1cc(=O)c(C(=O)O)cn1[C@H]1[C@@H]2CCC1(C)C (relative stereo) [Example 18, Cis-11-(4-ethoxy-4-oxobutoxy)-10-methoxy-3,3-dimethyl-7-oxo-1,2,3,3a,7,12b-hexahydrocyclopenta[c]pyrido[2,1-a]isoquinoline-6-carboxylic acid] as the compound, how does the IC50 read?
A: The IC50 was 10 nM.

Q: How did the IC50 turn out when COc1cc2c(cc1OCCCCCCNS(C)(=O)=O)[C@H]1CCC(C)(C)[C@H]1n1cc(C(=O)O)c(=O)cc1-2 (relative stereo) [Example 26, Cis-10-methoxy-3,3-dimethyl-11-((6-(methylsulfonamido)hexyl)oxy)-7-oxo-1,2,3,3a,7,12b-hexahydrocyclopenta[c]pyrido[2,1-a]isoquinoline-6-carboxylic acid] was run?
A: The IC50 was 2 nM.

Q: Which IC50 does the source give for COc1cc2c(cc1OCCCN1CCCC1)[C@H]1CCC(C)(C)[C@H]1n1cc(C(=O)O)c(=O)cc1-2 (relative stereo) [Example 16, Cis-10-methoxy-3,3-dimethyl-7-oxo-11-(3-(pyrrolidin-1-yl)propoxy)-1,2,3,3a,7,12b-hexahydrocyclopenta[c]pyrido[2,1-a]isoquinoline-6-carboxylic acid] here?
A: The IC50 was 128 nM.

Q: How did the IC50 turn out when COc1cc2c(cc1O)[C@H]1CCC(C)(C)[C@H]1n1cc(C(=O)O)c(=O)cc1-2 (relative stereo) [Example 6, Cis-11-hydroxy-10-methoxy-3,3-dimethyl-7-oxo-1,2,3,3a,7,12b-hexahydrocyclopenta[c]pyrido[2,1-a]isoquinoline-6-carboxylic acid] was run?
A: Its IC50 is 84 nM.

Q: For COc1cc2c(cc1OCCCCCCNC(=O)OC(C)(C)C)[C@H]1CCC(C)(C)[C@H]1n1cc(C(=O)O)c(=O)cc1-2 (relative stereo) [Example 23, Cis-11-((6-((tert-butoxycarbonyl)amino)hexyl)oxy)-10-methoxy-3,3-dimethyl-7-oxo-1,2,3,3a,7,12b-hexahydrocyclopenta[c]pyrido[2,1-a]isoquinoline-6-carboxylic acid], which IC50 is on record?
A: The IC50 was 2 nM.

Q: COc1cc2c(cc1OCc1ccccc1)[C@@H]1CCCC[C@@H]1n1cc(C(=O)O)c(=O)cc1-2 (relative stereo) [Example 32, cis-12-benzyloxy-11-methoxy-8-oxo-1,2,3,4,4a,13b-hexahydropyrido[1,2-f]phenanthridine-7-carboxylic acid] was tested. Which IC50 did it give?
A: Its IC50 is 44 nM.
